Assay results taken from patent publication US9364448B2, “Nitisinone for treatment of oculocutaneous/ocular albinism and for increasing pigmentation” (The United States of America, as represented by the …, priority 2010, dated 2016).

Assays:
[1] = biological target: T1, H420R mutant tyrosinase in Melan-c cells (Mus musculus, UniProt P11344, H420R); assay: Tyrosinase enzyme activity in transfected Melan-c cells, H420R; assay type: cell-based; conditions: 1 mM tyrosine; Melan-c cells expressing H420R; p=0.03
T1 construct: expressed in transfected cells; host or cells: Melan-c cells (albino mouse melanocytes), Fugene HD transfection
T1 sequence (P11344 19-533 H420R): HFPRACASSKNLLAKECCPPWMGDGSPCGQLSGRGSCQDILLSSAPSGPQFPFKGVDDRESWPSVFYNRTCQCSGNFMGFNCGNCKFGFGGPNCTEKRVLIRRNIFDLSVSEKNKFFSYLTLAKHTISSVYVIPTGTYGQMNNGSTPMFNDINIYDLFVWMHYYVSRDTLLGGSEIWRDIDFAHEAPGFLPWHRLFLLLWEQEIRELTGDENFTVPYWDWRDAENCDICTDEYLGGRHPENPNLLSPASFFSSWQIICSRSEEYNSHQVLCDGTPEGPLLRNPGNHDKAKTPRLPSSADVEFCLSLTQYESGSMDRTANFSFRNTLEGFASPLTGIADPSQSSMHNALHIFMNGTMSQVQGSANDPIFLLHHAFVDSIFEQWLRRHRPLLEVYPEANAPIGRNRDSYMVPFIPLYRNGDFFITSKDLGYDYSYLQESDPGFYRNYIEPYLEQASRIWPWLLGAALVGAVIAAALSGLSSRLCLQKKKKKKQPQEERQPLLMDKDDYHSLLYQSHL
Method: Melan-c cell cultures. Melan-c cells (melanocytes derived from mice homozygous for the albino mutation (D. C. Bennett et al., Development, 105:379 (1989)) were cultured in RPMI 1640, pH 6.9 supplemented with 5% fetal bovine serum (FBS), streptomycin-penicillin (100 μg/ml each), 200 nM tetradeconyl phorbol acetate (TPA), and 100 μM β-mercaptoethanol, at 37° C. in 10% CO2. Cells were transfected using Fugene HD reagent according to the manufacturer's instructions (Roche Diagnostics Inc., Indianapolis, Ind.) in presence or absence of 1 mM tyrosine. After 24 hours, cells were washed twice with saline phosphate buffer, harvested in 10 mM sodium phosphate, pH 6.8, containing 1% Igepal CA-630 and protease inhibitor (Roche), and microcentrifuged for 30 minutes at 13,200×g, at a temperature of about 4° C. to obtain a protein lysate.
Diphenol oxidase activity of tyrosinase was determined spectrophotometrically according to Slominski et al., J. Invest. Dermatol., 96:172 (1991), with minor modifications. Briefly, the reaction mixtures contained 7 mM L-dopa in 0.1 M sodium phosphate buffer (pH 6.8) and protein lysate (20 mg/ml) was incubated at 37° C. and monitored by measuring the absorbance at 475 nm. All experiments were conducted in triplicate. […]

[2] = test system: C57BL/6J-Tyr^c-h/c-h mice (OCA1b model); assay: Plasma tyrosine in NTBC-treated Tyr^c-h/c-h (Himalayan) mice; assay type: in vivo, mouse
Method: Drug Dosing and Monitoring.
Plasma tyrosine was assayed from retro-orbital blood taken from mice at 1 week, and 4 weeks into treatment. Because the volume of blood that could be obtained from non-terminal bleeds was small, the plasma from 2-3 mice was pooled to make a single measurement. Plasma samples were frozen immediately after collection on dry ice. Samples ready for assay were gently thawed, diluted with an equal volume of loading buffer (0.2 M lithium citrate, pH 2.2), and filtered using Vivaspin 500 (3000 Da molecular weight cut-off, Sartorius Stedman Biotech, Goettingen, Germany) spun in a fixed angle centrifuge at about 14000×g for 60 minutes at a temperature of about 16-20° C. The supernatant was collected and tyrosine was quantitated on a Biochrom 30 […] (Biochrom, Ltd., Cambridge, UK) using the manufacturer's specifications.
Using the same protocol as described above, baseline plasma tyrosine, coat color (gross and microscopic), anterior segment pigment, and posterior segment pigment was documented for each mouse prior to initiating experiments. […] These treated mice were compared to an age- and gender-matched cohort of C57BL/6J-Tyr^c-h/c-h mice over the same time period. Corneal irritation due to NTBC treatment was monitored daily. At the start of treatment, an area of hair was plucked/shaved from each mouse's back, which has the effect of stimulating new hair growth and possibly new pigment deposition in the hair shaft. At the end of four weeks' time, plasma tyrosine concentrations were assessed in both treated and control animals.

[3] = test system: C57BL/6J-Tyr^c-2J/c-2J mice (OCA1a model); assay: Transmission electron microscopy of iris, RPE and choroid, Tyr^c-2J/c-2J mice; assay type: in vivo, mouse; conditions: treated vs untreated
Method: Transmission Electron Microscopy. Eyes from drug and vehicle-treated mice were dissected and divided into anterior and posterior segments (n=2 eyes from 2 separate mice in each group). The iris and posterior part (choroid, RPE and retina) of the eyes were removed and fixed in 2% glutaraldehyde and 2% paraformaldehyde in 0.1 M sodium phosphate buffer (PB), pH 7.4 for about 12 hours at room temperature (RT). After a wash with rinsing buffer (RB, 4% sucrose and 0.15 mM CaCl2 in PB), pH 7.4 at 4° C., tissues were postfixed in 1% OsO4 in 0.1 M PB, pH 7.4 for 1 hour. After rinsing and dehydration, tissues were embedded in Durcupan resin for 72 hours at 60° C. One micron semi-sections were used for tissue orientation. About 70-90 nm ultrasections were also collected in 200 mesh grids and counterstained with 5% uranyl acetate and 0.3% lead citrate. […]
In order to quantitate the effect of NTBC on pigmentation in ocular tissues and to assess for sub-clinical changes in ocular pigmentation, transmission electron microscopy (TEM) of iris, retinal pigment epithelium (RPE), and choroid of treated and control mice (n=4 eyes from 2 mice for each group) was performed. […]

Structure (SMILES)	Tyrosinase enzyme activity over baseline [1]	Plasma tyrosine concentration ([2]; Tyr^c-h (OCA1b model), 4 mg/kg q.o.d. oral, after 30 days, n = 4)	Increase in steady-state plasma tyrosine concentrations ([2]; Tyr^c-h/c-h mice, 4 mg/kg orally every other day, vs control) [fold]	Plasma tyrosine concentrations, treated vs control ([2]; Tyr^c-h/c-h mice, dose as in Example 1 (1 mg/kg every other day), one month)	Number of pigmented melanosomes (stages III and IV) in iris, choroid and RPE (TEM) [3]
N[C@@H](Cc1ccc(O)cc1)C(=O)O [tyrosine]	increased enzyme activity over baseline	–	–	–	–
O=C1CCCC(=O)C1C(=O)c1ccc(C(F)(F)F)cc1[N+](=O)[O-] [NTBC, 2-(-2-nitro-4 trifluoromethylbenzoyl)-1,3 cyclohexanedione]	–	305 ± 35 μM (n = 4,	~4	not statistically significantly different	little to no increase
